Biological target: human Nav1.8 (Homo sapiens (Human), UniProt Q9Y5Y9)
Test: E-VIPR optical membrane potential assay with electrical stimulation
Format: cell-based
Conditions: HEK cells expressing human Nav1.8
Description: Assays for Detecting and Measuring NaV Inhibition Properties of Compounds E-VIPR Optical Membrane Potential Assay Method with Electrical Stimulation
Sodium channels are voltage-dependent proteins that can be activated by inducing membrane voltage changes by applying electric fields. The electrical stimulation instrument and methods of use are described in Ion Channel Assay Methods PCT/US01/21652, herein incorporated by reference and are referred to as E-VIPR. The instrument comprises a microtiter plate handler, an optical system for exciting the coumarin dye while simultaneously recording the coumarin and oxonol emissions, a waveform generator, a current- or voltage-controlled amplifier, and a device for inserting electrodes in well. Under integrated computer control, this instrument passes user-programmed electrical stimulus protocols to cells within the wells of the microtiter plate.
24 hours before the assay on E-VIPR, HEK cells expressing human Nav1.8 were seeded in 384-well poly-lysine coated plates at 15,000-20,000 cells per well. HEK cells were grown in media (exact composition is specific to each cell type and NaV subtype) supplemented with 10% FBS (Fetal Bovine Serum, qualified; GibcoBRL #16140-071) and 1% Pen-Strep (Penicillin-Streptomycin; GibcoBRL #15140-122). Cells were grown in vented cap flasks, in 90% humidity and 5% CO2.
100 mg/mL Pluronic F-127 (Sigma #P2443), in dry DMSO
Compound Plates: 384-well round bottom plate, e.g. Corning 384-well Polypropylene Round Bottom #3656
Cell Plates: 384-well tissue culture treated plate, e.g. Greiner #781091-1B
Bath1 buffer: Glucose 10 mM (1.8 g/L), Magnesium Chloride (Anhydrous), 1 mM (0.095 g/L), Calcium Chloride, 2 mM (0.222 g/L), HEPES 10 mM (2.38 g/L), Potassium Chloride, 4.5 mM (0.335 g/L), Sodium Chloride 160 mM (9.35 g/L).
Hexyl Dye Solution: Bath1 Buffer+0.5% β-cyclodextrin (make this prior to use, Sigma #C4767), 8 μM CC2-DMPE+2.5 μM DiSBAC6(3). To make the solution added volume of 10% Pluronic F127 stock equal to volumes of CC2-DMPE+DiSBAC6(3). The order of preparation was first mix Pluronic and CC2-DMPE, then added DiSBAC6(3) while vortexing, then added Bath1+β-Cyclodextrin.
1) Pre-spotted compounds (in neat DMSO) into compound plates. Vehicle control (neat DMSO), the positive control (20 mM DMSO stock tetracaine, 125 μM final in assay) and test compounds were added to each well at 160× desired final concentration in neat DMSO. Final compound plate volume was 80 μL (80-fold intermediate dilution from 1 μL DMSO spot; 160-fold final dilution after transfer to cell plate). Final DMSO concentration for all wells in assay was 0.625%.
2) Prepared Hexyl Dye Solution.
3) Prepared cell plates. On the day of the assay, medium was aspirated and cells were washed three times with 100 μL of Bath1 Solution, maintaining 25 μL residual volume in each well.
4) Dispensed 25 μL per well of Hexyl Dye Solution into cell plates. Incubated for 20-35 minutes at room temp or ambient conditions.
5) Dispensed 80 μL per well of Bath1 into compound plates. Acid Yellow-17 (1 mM) was added and Potassium Chloride was altered from 4.5 to 20 mM depending on the NaV subtype and assay sensitivity.
6) Washed cell plates three times with 100 μL per well of Bath1, leaving 25 μL of residual volume. Then transfered 25 uL per well from Compound Plates to Cell Plates. Incubated for 20-35 minutes at room temp/ambient condition.
7) Read Plate on E-VIPR. Used the current-controlled amplifier to deliver stimulation wave pulses for 10 seconds and a scan rate of 200 Hz. A pre-stimulus recording was performed for 0.5 seconds to obtain the un-stimulated intensities baseline. The stimulatory waveform was followed by 0.5 seconds of post-stimulation recording to examine the relaxation to the resting state.
Data was analyzed and reported as normalized ratios of emission intensities measured in the 460 nm and 580 nm channels. The response as a function of time was reported as the ratios obtained using the following formula: […]

human Nav1.8, sequence (Q9Y5Y9 whole entry): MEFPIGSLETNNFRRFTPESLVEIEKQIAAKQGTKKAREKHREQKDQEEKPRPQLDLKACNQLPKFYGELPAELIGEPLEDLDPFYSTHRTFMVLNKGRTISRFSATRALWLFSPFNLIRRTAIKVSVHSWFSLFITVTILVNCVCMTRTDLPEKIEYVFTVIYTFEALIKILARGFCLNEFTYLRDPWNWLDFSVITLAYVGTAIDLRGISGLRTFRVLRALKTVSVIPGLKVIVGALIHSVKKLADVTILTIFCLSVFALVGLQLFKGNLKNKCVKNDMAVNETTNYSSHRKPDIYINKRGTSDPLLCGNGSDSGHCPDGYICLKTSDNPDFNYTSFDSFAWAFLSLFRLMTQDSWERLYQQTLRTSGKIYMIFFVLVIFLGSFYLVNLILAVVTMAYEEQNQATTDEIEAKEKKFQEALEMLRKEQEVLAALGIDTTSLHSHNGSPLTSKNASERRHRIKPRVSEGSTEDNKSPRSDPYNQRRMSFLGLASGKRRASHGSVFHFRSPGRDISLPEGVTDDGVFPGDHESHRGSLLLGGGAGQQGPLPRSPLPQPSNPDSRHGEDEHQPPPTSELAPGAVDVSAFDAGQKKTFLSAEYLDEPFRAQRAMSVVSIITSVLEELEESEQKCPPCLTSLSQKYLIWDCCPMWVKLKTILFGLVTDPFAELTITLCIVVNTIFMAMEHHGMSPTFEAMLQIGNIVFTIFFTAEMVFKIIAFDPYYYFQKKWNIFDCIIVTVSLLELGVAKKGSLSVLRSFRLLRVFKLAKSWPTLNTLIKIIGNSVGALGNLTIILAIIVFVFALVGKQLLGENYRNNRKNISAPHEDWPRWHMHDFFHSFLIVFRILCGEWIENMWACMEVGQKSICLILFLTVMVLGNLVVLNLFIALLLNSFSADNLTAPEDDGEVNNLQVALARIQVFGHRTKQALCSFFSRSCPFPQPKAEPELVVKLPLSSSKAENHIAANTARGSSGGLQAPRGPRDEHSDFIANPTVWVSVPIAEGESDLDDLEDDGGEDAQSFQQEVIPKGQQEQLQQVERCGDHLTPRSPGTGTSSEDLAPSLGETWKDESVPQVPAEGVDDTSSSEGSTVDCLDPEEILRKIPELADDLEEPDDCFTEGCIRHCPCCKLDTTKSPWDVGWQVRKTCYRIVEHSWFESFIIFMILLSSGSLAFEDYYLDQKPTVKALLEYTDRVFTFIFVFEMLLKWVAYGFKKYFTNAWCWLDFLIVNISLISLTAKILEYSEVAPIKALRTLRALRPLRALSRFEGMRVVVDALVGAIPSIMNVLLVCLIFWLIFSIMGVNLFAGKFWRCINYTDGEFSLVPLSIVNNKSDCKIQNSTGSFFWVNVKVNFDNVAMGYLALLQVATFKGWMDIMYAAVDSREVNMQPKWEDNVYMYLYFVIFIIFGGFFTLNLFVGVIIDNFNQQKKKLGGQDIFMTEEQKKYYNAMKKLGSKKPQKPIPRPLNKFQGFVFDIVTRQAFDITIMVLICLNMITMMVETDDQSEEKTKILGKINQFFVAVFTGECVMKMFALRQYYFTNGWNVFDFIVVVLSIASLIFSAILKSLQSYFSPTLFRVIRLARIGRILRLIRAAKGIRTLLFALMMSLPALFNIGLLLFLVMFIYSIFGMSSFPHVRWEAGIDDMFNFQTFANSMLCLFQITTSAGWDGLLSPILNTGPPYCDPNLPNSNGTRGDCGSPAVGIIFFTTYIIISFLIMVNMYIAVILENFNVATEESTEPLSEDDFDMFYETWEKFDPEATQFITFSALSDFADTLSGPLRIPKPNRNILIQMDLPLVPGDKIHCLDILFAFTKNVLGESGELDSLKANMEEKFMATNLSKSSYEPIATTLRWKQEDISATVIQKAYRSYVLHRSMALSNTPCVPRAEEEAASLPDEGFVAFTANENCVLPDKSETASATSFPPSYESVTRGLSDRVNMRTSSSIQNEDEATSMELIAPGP

Structure (SMILES)	IC50
COc1c(F)cccc1Oc1ccc(C(F)(F)F)cc1C(=O)Nc1ccc(C(=O)O)nc1 [Compound 69, 5-(2-(3-fluoro-2-methoxyphenoxy)-5-(trifluoromethyl)benzamido)picolinic acid]	135 nM
O=C(O)c1ccc(NC(=O)c2cc(C(F)(F)F)ccc2Oc2ccccc2)cn1 [Compound 70, 5-(2-phenoxy-5-(trifluoromethyl)benzamido)picolinic acid]	985 nM
O=C(O)c1ccc(NC(=O)c2cc(C(F)(F)F)ccc2Oc2ccc(F)cc2)cn1 [Compound 71, 5-(2-(4-fluorophenoxy)-5-(trifluoromethyl)benzamido)picolinic acid]	285 nM
COc1cc(F)ccc1Oc1cc(C(F)(F)C(F)(F)F)ccc1C(=O)Nc1ccc(C(=O)O)nc1 [Compound 72, 5-(2-(4-fluoro-2-methoxyphenoxy)-4-(perfluoroethyl)benzamido)picolinic acid]	35 nM
O=C(O)c1ccc(NC(=O)c2ccc(C(F)(F)C(F)(F)F)cc2Oc2ccc(F)cc2)cn1 [Compound 73, 5-(2-(4-fluorophenoxy)-4-(perfluoroethyl)benzamido)picolinic acid]	110 nM
O=C(O)c1ccc(NC(=O)c2c(Oc3ccc(F)cc3Cl)cccc2C(F)(F)F)cn1 [Compound 74, 5-(2-(2-chloro-4-fluorophenoxy)-6-(trifluoromethyl)benzamido)picolinic acid]	405 nM

Other lines, results leading:

IC50	Structure (SMILES)
68 nM	COc1cc(Cl)ccc1Oc1ccc(C(F)(F)F)cc1C(=O)Nc1ccc(C(=O)O)nc1 [Compound 66, 5-(2-(4-chloro-2-methoxyphenoxy)-5-(trifluoromethyl)benzamido)picolinic acid]
79 nM	COc1ccc(Oc2ccc(C(F)(F)F)cc2C(=O)Nc2ccc(C(=O)O)nc2)c(C)c1 [Compound 67, 5-(2-(4-methoxy-2-methylphenoxy)-5-(trifluoromethyl)benzamido)picolinic acid]
135 nM	COc1ccc(Oc2ccc(C(F)(F)F)cc2C(=O)Nc2ccc(C(=O)O)nc2)c(Cl)c1 [Compound 68, 5-(2-(2-chloro-4-methoxyphenoxy)-5-(trifluoromethyl)benzamido)picolinic acid]
108 nM	Cc1cc(F)ccc1Oc1ccc(C(F)(F)F)cc1C(=O)Nc1ccc(C(=O)O)nc1 [Compound 75, 5-(2-(4-fluoro-2-methylphenoxy)-5-(trifluoromethyl)benzamido)picolinic acid]
